Laboratory results from patent US20090062253A1, “HETEROCYCLODIAZEPINE CANNABINOID RECEPTOR MODULATORS FOR TREATMENT OF DISEASE” (KALYPSYS, INC., priority 2007, published 2009).

Columns and labels:
Human CB2 = biological target: T1, Human CB2 (Homo sapiens, UniProt P34972); experiment: Human CB2 Radioligand Binding Assay; conditions: membranes from stably transfected CHO CB2 cells; competition with [3H] CP-55,940; read-out: CB2 Ligand Binding Asssay
T1 construct: expressed in transfected cells; membrane preparation
Description: (§1) This receptor binding filtration assay measures the receptor-ligand interactions of compounds by measuring ability to compete with a radiolabeled control ligand. Reactions were performed in 96 deep-well plate (Costar 3961) with a final volume of 600 ul. Compounds were added to each well either in single point (10 uM final) or dose-response. Compounds were delivered in DMSO or further diluted in incubation buffer to a final assay DMSO concentration of 1%. Incubation buffer (50 mM Tris-HCl pH 7.4, 2.5 mM EGTA, 5 mM MgCl2, 5.0 mg/ml fatty acid free BSA) was added to each well. Following buffer addition, [^3H] CP-55,940 was added. Tritiated CP-55,940 (Perkin Elmer) was used at the Kd determined from prior saturation binding experiments conducted on each lot of membranes. Membrane preparations from stably transfected CHO CB2 cells were added and the reaction was incubated for 90 minutes at 30° C. Unifilter GF/C filtration plates (Perkin Elmer) were pre-wet with 0.05% polyethylenimine. Samples were transferred to Unifilter plates and separation of unbound radioligand was achieved using a vacuum manifold (Millipore). Following thorough washing with 5 ml/well ice-cold wash buffer (50 mM Tris-HCl pH 7.4, 2.5 mM EGTA, 5 mM MgCl2, 0.5 mg/ml fatty acid free BSA), filterplates were dried completely. Betaplate Scint Scintillation cocktail (25 ul, Perkin Elmer) was applied and plates were read using Microbeta Trilux (Wallac). Data analysis was performed in Spotfire. Activity of the positive control (100 nM CP-55,940) was set as 100% efficacy.
Stable recombinant Human CB2-CHO cell membranes were prepared as follows: Chinese Hamster Ovarian (CHO) cells stably expressing human cannabinoid receptor type 2 were grown to ˜90% confluence in 15×100 mm culture dishes under puromycin selection (5 ug/ml) Cells were harvested from culture flasks using a cell scraper, were washed once with cold phosphate-buffered saline (calcium and magnesium free) and pelleted by centrifugation at 400 g for 5 min at 4° C. Cell pellet was washed once with cold phosphate-buffered saline and centrifuged again at 400×g for 5 min at 4° C. The pellet was suspended in ice-cold lysis buffer (10 mM Tris-HCl, 0.1 mM EDTA, containing […], pH 7.5) and homogenized in a chilled 7 ml glass dounce homogenizer using 50 strokes. The homogenate was centrifuged at 400 g for 15 min at 4° C. The cloudy supernatant was collected and centrifuged at 41000 g for 30 min at 4° C. The resulting pellet was washed with ice-cold sucrose-free lysis buffer and centrifuged again at 41000 g for 30 min at 4° C. The membrane pellet was suspended in sucrose-free storage buffer (10 mm Tris-HCl, 0.1 mM EDTA, pH 7.5) to a concentration of 2-3 mg protein/ml. Aliquots were flash frozen in liquid nitrogen and stored at −80° C. Concentration was determined using Dc protein assay kit (Bio-Rad).

[1] = biological target: T2, human cannabinoid receptor type 1 (Homo sapiens, UniProt P21554); experiment: Human CB1 Radioligand Binding Assay (basis of selectivity CB2 vs. CB1)
T2 construct: purchased Perkin Elmer RBHCB1M; host or cells: HEK 293 EBNA cells
Description: as §1
The CB1 binding assay was performed as described above except that HEK 293 EBNA cells expressing human cannabinoid receptor type 1 (Perkin Elmer cat #RBHCB1M) were used according the manufacturer's instructions. The incubation buffer was composed of 50 mM Tris-HCl pH 7.4, 2.5 mM EDTA, 5 mM MgCl2, 5.0 mg/ml fatty acid free BSA and the wash buffer was composed of 50 mM Tris-HCl pH 7.4, 2.5 mM EDTA, 5 mM MgCl2, 0.5 mg/ml fatty acid free BSA. Activity of the positive control (100 nM CP-55,940) was set as 100% efficacy.

T1 sequence (P34972 whole entry): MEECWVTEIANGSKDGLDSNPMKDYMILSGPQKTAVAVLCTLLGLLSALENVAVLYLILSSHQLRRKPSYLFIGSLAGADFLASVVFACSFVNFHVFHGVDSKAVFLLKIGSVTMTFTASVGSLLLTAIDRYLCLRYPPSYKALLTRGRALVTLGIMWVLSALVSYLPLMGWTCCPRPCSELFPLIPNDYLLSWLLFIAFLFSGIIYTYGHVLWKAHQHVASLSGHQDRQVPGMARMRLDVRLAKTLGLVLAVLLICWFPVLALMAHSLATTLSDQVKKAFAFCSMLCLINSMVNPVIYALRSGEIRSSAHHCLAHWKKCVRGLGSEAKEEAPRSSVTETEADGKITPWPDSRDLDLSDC
T2 sequence (P21554 whole entry): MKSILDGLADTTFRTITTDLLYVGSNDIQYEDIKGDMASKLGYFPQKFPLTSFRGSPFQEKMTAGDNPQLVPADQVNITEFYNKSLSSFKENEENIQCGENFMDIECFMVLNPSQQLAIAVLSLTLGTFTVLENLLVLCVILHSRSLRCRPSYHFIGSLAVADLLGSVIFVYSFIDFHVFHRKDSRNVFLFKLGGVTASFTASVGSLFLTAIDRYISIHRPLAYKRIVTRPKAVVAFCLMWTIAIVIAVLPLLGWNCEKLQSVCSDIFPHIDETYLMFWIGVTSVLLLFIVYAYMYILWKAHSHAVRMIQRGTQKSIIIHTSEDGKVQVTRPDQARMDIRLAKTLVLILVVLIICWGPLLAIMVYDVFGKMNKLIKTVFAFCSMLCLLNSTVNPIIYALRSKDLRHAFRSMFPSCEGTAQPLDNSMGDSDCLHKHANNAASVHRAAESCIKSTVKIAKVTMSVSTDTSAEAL

Row | Structure (SMILES) | IC50 (radioligand displacement) (Human CB2) | Selectivity, CB2 vs. CB1 [1]
1 | CC(C)(C)c1ccc(C2c3cccn3CCC2C(=O)Nc2ccc(F)c(F)c2)cc1 (mixture of isomers) [Example 95, 8-(4-tert-Butylphenyl)-N-(3,4-difluorophenyl)-5,6,7,8-tetrahydroindolizine-7-carboxamide] | < 1000 nM | + (+ indicates > 10-fold)
2 | O=C(Nc1ccc(F)cc1F)C1CCn2cccc2C1c1ccccc1 (mixture of isomers) [Example 100, N-(2,4-Difluorophenyl)-8-phenyl-5,6,7,8-tetrahydroindolizine-7-carboxamide] | > 1000 nM | − (− indicates < 10-fold)
3 | O=C(Nc1ccc(F)c(F)c1)C1CCn2cccc2C1c1ccccc1 (mixture of isomers) [Example 101, N-(3,4-Difluorophenyl)-8-phenyl-5,6,7,8-tetrahydroindolizine-7-carboxamide] | > 1000 nM | − (− indicates < 10-fold)
4 | O=C(Nc1ccc(Cl)cc1)C1CCn2cccc2C1c1ccccc1 (mixture of isomers) [Example 102, N-(4-Chlorophenyl)-8-phenyl-5,6,7,8-tetrahydroindolizine-7-carboxamide] | > 1000 nM | − (− indicates < 10-fold)
5 | O=C(Nc1ccc(C(F)(F)F)cc1)C1CCn2cccc2C1c1ccccc1 (mixture of isomers) [Example 103, 8-Phenyl-N-(4-(trifluoromethyl)phenyl)-5,6,7,8-tetrahydroindolizine-7-carboxamide] | > 1000 nM | − (− indicates < 10-fold)
6 | O=C(Nc1ccc(OC(F)(F)F)cc1)C1CCn2cccc2C1c1ccccc1 (mixture of isomers) [Example 104, 8-Phenyl-N-(4-(trifluoromethoxy)phenyl)-5,6,7,8-tetrahydroindolizine-7-carboxamide] | > 1000 nM | − (− indicates < 10-fold)
7 | O=C(Nc1ccc(F)cc1F)[C@H]1CCCn2cccc2[C@@H]1c1ccccc1 (relative stereo) [Example 105, (8,9-trans)-N-(2,4-Difluorophenyl)-9-phenyl-6,7,8,9-tetrahydro-5H-pyrrolo[1,2-a]azepine-8-carboxamide] | > 1000 nM | − (− indicates < 10-fold)
8 | CC(C)(C)c1ccc(C2c3cccn3CCN2C(=O)Nc2ccc(Cl)cc2Cl)cc1 (stereo not drawn) [Example 3, 1-(4-tert-Butylphenyl)-N-(2,4-dichlorophenyl)-3,4-dihydropyrrolo[1,2-a]pyrazine-2(1H)-carboxamide] | < 1000 nM | 
9 | CC(C)(C)c1ccc(C2NCCCn3cccc32)cc1 (stereo not drawn) [Example 6, 1-(4-tert-Butylphenyl)-2,3,4,5-tetrahydro-1H-pyrrolo[1,2-a][1,4]diazepine] | > 1000 nM | 
10 | Cc1ccc(C2c3cccn3CCCN2C(=O)Nc2ccc(Cl)cc2Cl)cc1 (stereo not drawn) [Example 9, N-(2,4-Dichlorophenyl)-1-p-tolyl-4,5-dihydro-1H-pyrrolo[1,2-a][1,4]diazepine-2(3H)-carboxamide] | < 1000 nM | 
11 | O=C(Nc1ccc(F)cc1F)N1CCCn2cccc2C1c1ccc(OC(F)(F)F)cc1 (stereo not drawn) [Example 15, N-(2,4-Difluorophenyl)-1-(4-(trifluoromethoxy)phenyl)-4,5-dihydro-1H-pyrrolo[1,2-a][1,4]diazepine-2(3H)-carboxamide] | < 1000 nM | 
12 | O=C(Nc1ccc(Cl)cc1Cl)N1CCCn2cccc2C1c1ccc(OC(F)(F)F)cc1 (stereo not drawn) [Example 16] | > 1000 nM | 
13 | O=C(Nc1ccc(C(F)(F)F)cc1)C1=C(c2ccccc2)c2cccn2CC1 [Example 68, 8-Phenyl-N-(4-(trifluoromethyl)phenyl)-5,6-dihydroindolizine-7-carboxamide] | > 1000 nM | 
14 | O=C(Nc1ccc(F)cc1F)C1=C(c2ccccc2)c2cccn2CC1 [Example 70, N-(2,4-Difluorophenyl)-8-phenyl-5,6-dihydroindolizine-7-carboxamide] | > 1000 nM | 

The remaining lines, values ahead:

Row | IC50 (radioligand displacement) (Human CB2) | Selectivity, CB2 vs. CB1 [1] | Structure (SMILES)
15 | > 1000 nM | + (+ indicates > 10-fold) | CC(C)(C)c1ccc(C2c3cccn3CCCC2NC(=O)Nc2ccc(Cl)cc2)cc1 (mixture of isomers) [Example 115, 1-(9-(4-tert-Butylphenyl)-6,7,8,9-tetrahydro-5H-pyrrolo[1,2-a]azepin-8-yl)-3-(4-chlorophenyl)urea]
16 | < 1000 nM | − (− indicates < 10-fold) | CC(C)(C)c1ccc(C2c3cccn3CCCC2NC(=O)Nc2ccc(F)cc2F)cc1 (mixture of isomers) [Example 116, 1-(9-(4-tert-Butylphenyl)-6,7,8,9-tetrahydro-5H-pyrrolo[1,2-a]azepin-8-yl)-3-(2,4-difluorophenyl)urea]
17 | < 1000 nM | − (− indicates < 10-fold) | CC(C)(C)c1ccc(C2c3cccn3CCCC2NC(=O)Nc2ccc(F)c(F)c2)cc1 (mixture of isomers) [Example 117, 1-(9-(4-tert-Butylphenyl)-6,7,8,9-tetrahydro-5H-pyrrolo[1,2-a]azepin-8-yl)-3-(3,4-difluorophenyl)urea]
18 | < 1000 nM | + (+ indicates > 10-fold) | CC(C)(C)c1ccc(C2c3cccn3CCCC2NC(=O)Nc2ccc(C(F)(F)F)cc2)cc1 (mixture of isomers) [Example 122, 1-(9-(4-tert-Butylphenyl)-6,7,8,9-tetrahydro-5H-pyrrolo[1,2-a]azepin-8-yl)-3-(4-(trifluoromethyl)phenyl)urea]
19 | > 1000 nM | − (− indicates < 10-fold) | CC(C)(C)c1ccc(CC2[C@@H]3CCCN3CCCN2C(=O)Nc2ccc(F)cc2F)cc1 (mixture of isomers) [Example 124, (9aS)-1-(4-tert-Butylbenzyl)-N-(2,4-difluorophenyl)hexahydro-1H-pyrrolo[1,2-a][1,4]diazepine-2(3H)-carboxamide]
20 | > 1000 nM | − (− indicates < 10-fold) | CC(C)(C)c1ccc(CC2[C@@H]3CCCN3CCCN2C(=O)Nc2ccc(Cl)cc2)cc1 (mixture of isomers) [Example 125, (9aS)-1-(4-tert-Butylbenzyl)-N-(4-chlorophenyl)hexahydro-1H-pyrrolo[1,2-a][1,4]diazepine-2(3H)-carboxamide]
21 | > 1000 nM | − (− indicates < 10-fold) | CC(C)(C)c1ccc(CC2[C@@H]3CCCN3CCCN2C(=O)Nc2ccccc2)cc1 (mixture of isomers) [Example 126, (9aS)-1-(4-tert-Butylbenzyl)-N-phenylhexahydro-1H-pyrrolo[1,2-a][1,4]diazepine-2(3H)-carboxamide]
22 | > 1000 nM | − (− indicates < 10-fold) | CC(C)(C)c1ccc(CC2[C@@H]3CCCN3CCCN2C(=O)Nc2ccc(F)cc2)cc1 (mixture of isomers) [Example 127, (9aS)-1-(4-tert-Butylbenzyl)-N-(4-fluorophenyl)hexahydro-1H-pyrrolo[1,2-a][1,4]diazepine-2(3H)-carboxamide]
23 | > 1000 nM | − (− indicates < 10-fold) | O=C(Nc1ccc(F)c(F)c1)[C@H]1CCCn2cccc2[C@@H]1c1ccccc1 (relative stereo) [Example 107, (8,9-trans)-N-(3,4-Difluorophenyl)-9-phenyl-6,7,8,9-tetrahydro-5H-pyrrolo[1,2-a]azepine-8-carboxamide]
